From ChEMBL document CHEMBL1159340, “Antibacterial diterpenes from Calceolaria pinifolia” (J Nat Prod, 2003)
Converted amounts (≈) assume the structure as drawn.

What was measured:
Type in all cases: functional
[1] = system: Bacillus subtilis; experiment: Antimicrobial activity against Bacillus subtilis 327 after 18 hrs by microbroth dilution method
[2] = system: Staphylococcus aureus; experiment: Antimicrobial activity against methicillin-susceptible Staphylococcus aureus 375 after 18 hrs by microbroth dilution method
[3] = system: Staphylococcus aureus; experiment: Antimicrobial activity against methicillin-resistant Staphylococcus aureus 310 after 18 hrs by microbroth dilution method
[4] = system: Escherichia coli; experiment: Antimicrobial activity against Escherichia coli imp 389 after 18 hrs by microbroth dilution method
[5] = system: Bacillus subtilis; experiment: Inhibition of DNA synthesis in Bacillus subtilis assessed as incorporation of [3H]thymidine at 8 ug/mL by LKB Betaplate scintillation counter relative to control; parameters: scale not given: the % may be the effect or the level left
[6] = system: Bacillus subtilis; experiment: Inhibition of RNA synthesis in Bacillus subtilis assessed as incorporation of [3H]uridine at 8 ug/mL by LKB Betaplate scintillation counter relative to control; parameters: scale not given: the % may be the effect or the level left
[7] = system: Bacillus subtilis; experiment: Inhibition of RNA synthesis in Bacillus subtilis assessed as [3H]uridine uptake at 8 ug/mL by LKB Betaplate scintillation counter relative to control; parameters: scale not given: the % may be the effect or the level left
[8] = system: Bacillus subtilis; experiment: Inhibition of protein synthesis in Bacillus subtilis assessed as [3H]amino acid uptake at 8 ug/mL by LKB Betaplate scintillation counter relative to control; parameters: scale not given: the % may be the effect or the level left
[9] = system: Bacillus subtilis; experiment: Inhibition of DNA synthesis in Bacillus subtilis assessed as [3H]thymidine uptake at 8 ug/mL by LKB Betaplate scintillation counter relative to control; parameters: scale not given: the % may be the effect or the level left
[10] = system: Bacillus subtilis; experiment: Inhibition of protein synthesis in Bacillus subtilis assessed as incorporation of [3H]amino acid at 8 ug/mL by LKB Betaplate scintillation counter relative to control; parameters: scale not given: the % may be the effect or the level left

Structure (SMILES) | MIC [1] [µg/mL] | MIC [2] [µg/mL] | MIC [3] [µg/mL] | MIC [4] [µg/mL] | Activity [5] [%] | Activity [6] [%] | Activity [7] [%] | Activity [8] [%] | Activity [9] [%] | Activity [10] [%]
CC(C)c1ccc2c(c1)CC[C@H]1[C@](C)(CO)CCC[C@]21C [POMIFERIN A] | 8 (≈ 27.9 µM) | 4 (≈ 14 µM) | 4 (≈ 14 µM) | > 128 | – | – | – | – | – | –
C=C[C@]1(C)CC=C2C(CC[C@@H]3[C@](C)(C(=O)O)CCC[C@@]23C)C1 (stereo partly specified) | 32 (≈ 106 µM) | 16 (≈ 52.9 µM) | 32 (≈ 106 µM) | > 128 | – | – | – | – | – | –
O=C(N[C@H](CO)[C@H](O)c1ccc([N+](=O)[O-])cc1)C(Cl)Cl [CHLORAMPHENICOL] | – | – | – | – | 80 | 166 | 141 | 83 | 74 | 10
C=C[C@]1(C)CCC2=C(CC[C@@H]3[C@](C)(CO)CCC[C@@]23C)C1 | 32 (≈ 111 µM) | 32 (≈ 111 µM) | 64 (≈ 222 µM) | > 128 | – | – | – | – | – | –
CC1(C)S[C@@H]2[C@H](NC(=O)Cc3ccccc3)C(=O)N2[C@H]1C(=O)O [PENICILLIN G] | 0.03 (≈ 0.0897 µM) | 0.03 (≈ 0.0897 µM) | 128 (≈ 383 µM) | 1 (≈ 2.99 µM) | – | – | – | – | – | –
CC(C)c1ccc2c(c1)CC[C@H]1[C@](C)(C(=O)O)CCC[C@]21C [DEHYDROABIETIC ACID] | 32 (≈ 107 µM) | 16 (≈ 53.3 µM) | 32 (≈ 107 µM) | 128 (≈ 426 µM) | – | – | – | – | – | –
